Assay results reported in patent US20010049373A1, “Materials and methods for killing nematodes and nematode eggs” (priority 2000, published 2001).

Legend:
Caenorhabditis elegans [1] = test: C. elegans L1 larvae dose-response, 5 day visual viability score (Examples 2 and 7); assay type: in vivo; set-up: key: Dead: only stiff L1s (no movement); Dead (L4): worms are dead, but at a later larval stage; majority of worms are L1 (based on size); majority of worms are L2 (based on size); majority of worms are L3 (based on size); majority of worms are L4 (based on size); AD: majority of worms are adult; #AD: 5 adult worms or less; B!: sterile (0-25 progeny); B: low broodsize (25-100 progeny); ˜B: moderate broodsize (100-250 progeny); <: reduced broodsize (250-500 progeny); OK: no effect (˜1000+ progeny); settings: day 5, Table 3
Procedure, shortened: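 Twenty L1 larvae per well in NGM with E. coli HB101 were exposed to six 3-fold dilutions from 70 μM to 0.3 μM, 1.4% DMSO final, at 20° C. Day-5 viability was scored visually under a dissecting microscope by developmental stage, adult count and brood size.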

Caenorhabditis elegans [2] = test: HTS runs (initial and follow-up): mOD, % Run and visual score (Table 3); assay type: in vivo
Procedure: The nematicidal activity of anthelmintic Compositions 48-118 were determined in accordance with the procedure outlined in Example 2.

CCC1CCCCN1c1cc(Oc2ccc3oc4ccccc4c3c2)ncn1 (stereo not drawn) [AKC 109]
5 Day Visual Score V6 (Caenorhabditis elegans [1]; 0.3 μM (procedure of Example 2)): B (low broodsize (25-100 progeny))
5 Day Visual Score V2 (Caenorhabditis elegans [1]; 23.3 μM (procedure of Example 2)): L1
5 Day Visual Score V1 (Caenorhabditis elegans [1]; 70 μM (procedure of Example 2)): L1
Follow-up HTS Run % Run (Caenorhabditis elegans [2]; Follow-up HTS Run): 121%
Follow-up HTS Run Visual Score (Caenorhabditis elegans [2]; Follow-up HTS Run): L4/AD/B!
Follow-up HTS Run mOD (Caenorhabditis elegans [2]; Follow-up HTS Run): 163 mOD
Initial HTS Run % Run (Caenorhabditis elegans [2]; Initial HTS Run): 132%
Initial HTS Run Visual Score (Caenorhabditis elegans [2]; Initial HTS Run): 1AD/B!
Initial HTS Run mOD (Caenorhabditis elegans [2]; Initial HTS Run): 258 mOD
